In patent US20150315241A1, “Antibiotic Peptides” (priority 2007, published 2015):
≈ marks a conversion by molar mass, not a printed value. Where a SMILES comes first, the peptide text is derived from it. Where no end group is shown, it is not given here. [ ]: non-standard residue; d: D form. The star is where a group is joined. Orn(α-tetramethylguanidino) = CN(C)C(=N[C@@H](CCCN)C(=O)*)N(C)C; Orn = NCCC[C@H](N)C(=O)O

Legend:
[1] = test system: M. luteus ATCC 10240; assay type: cell-based, Micrococcus luteus; settings: ATCC 10240, 20 h
Procedure, shortened: (§1)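 Peptides were serially diluted two-fold in 1% TSB, giving final concentrations from 125 μg/mL down to 60 ng/mL, and mixed with overnight bacterial culture adjusted to 5×10^6 CFU/mL in 1% TSB. After 20 hrs at 37 °C, growth was read as absorbance at 595 nm, in triplicate, with sterile water as negative control.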

[2] = test system: Mycobacterium vaccae; assay type: cell-based; settings: 20 h
Description: The minimal inhibition concentrations (MIC) of the apidaecin-derived peptides and peptide-derivatives were determined by a growth inhibition assay using a serial peptide dilution in sterilized round-bottom 96-well plates (polystyrene, U-bottom, Greiner Bio-One GmbH) with a final volume of 100 μL per well. The bacteria, e.g., E. coli BL21 A1, were grown in nutrient broth (NB, Carl Roth GmbH+Co. KG, Karlsruhe, Germany) at 37° C. over night. To each well of the 96-well plate, 50 μL of the overnight culture adjusted to 5×10^6 CFU/mL in 1% TSB were added. Lyophilized peptides and peptidomimetics were dissolved in 1% TSB (tryptic soy broth) or water to give a final concentration of 250 μg/mL. Fifty μL of the peptide or peptidomimetics solution were added to the first well of a row on the plate and mixed. Fifty μL of the first well containing the peptide solution were transferred to the second well, mixed and again 50 μL transferred to the next well and so on. Thereby, a two-fold dilution series was obtained starting at 250 μg/mL in the first well down to 120 ng/mL in the 12th well of a row giving a final peptide or peptidomimetics concentration from 125 μg/mL (well 1) to 60 ng/mL (well 12). Plates were incubated at 37° C. for 20 hrs. The absorbance was measured at 595 nm using a TECAN micro plate spectrophotometer (Tecan, Germany). All peptides and peptidomimetics were measured in triplicates. Sterilized water was used as a negative control.
The bacteria strains were tested: • Eschericha coli 1103, 10233, BL 21 AI, DC 2, • Klebsiella pneumoniae 681, • Micrococcus luteus ATCC 10240, • Mycobacterium vaccae • Bactillus subtillis 347.

[3] = test system: E. coli DC 2; test: Growth inhibition assay (MIC); assay type: cell-based, Escherichia coli; settings: 1% TSB, 37° C., 20 hrs
Procedure, shortened: as §1

[4] = test system: E. coli BL 21 AI; test: Growth inhibition assay (MIC); assay type: cell-based, Escherichia coli; settings: 1% TSB, 37° C., 20 hrs
Procedure, shortened: as §1

[5] = test system: S. enterica subsp. Enterica serovar. typhi G10215 ATCC 700408; assay type: cell-based, Salmonella enterica; settings: ATCC 700408, 20 h
Procedure, shortened: (§2)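 Growth is measured at 595 nm after the bacteria, set to 5×10^6 CFU/mL in 1% TSB, sit with two-fold dilutions of peptide for 20 hrs at 37° C. Final peptide spans 125 μg/mL to 60 ng/mL.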

[6] = test system: R. radiobatter ATCC 15955; test: Growth inhibition assay (MIC); assay type: cell-based, Rhizobium radiobacter; settings: multidrug resistant strain; 1% TSB, 37° C., 20 hrs
Procedure, shortened: as §2

[7] = test system: S. typhi S5; assay type: cell-based, Salmonella typhi; settings: S5, 20 h
Procedure, shortened: as §2

[8] = test system: K. pneumonia 681; assay type: cell-based, Klebsiella pneumoniae; settings: 20 h
Procedure, shortened: as §1

[9] = test system: E. coli 45849; test: Growth inhibition assay (MIC); assay type: cell-based, Escherichia coli; settings: multidrug resistant strain; 1% TSB, 37° C., 20 hrs
Procedure, shortened: as §2

[10] = test system: B. subtilis 347; assay type: cell-based, Bactillus subtillis; settings: 347, 20 h
Procedure, shortened: as §1

[11] = test system: K. Pneumonia 123132; test: Growth inhibition assay (MIC); assay type: cell-based, Klebsiella pneumoniae; settings: multidrug resistant strain; 1% TSB, 37° C., 20 hrs
Procedure, shortened: as §2

[12] = test system: K. Pneumonia K6, ATCC 700603; test: Growth inhibition assay (MIC); assay type: cell-based, Klebsiella pneumoniae; settings: multidrug resistant strain; 1% TSB, 37° C., 20 hrs
Procedure, shortened: as §2

[13] = test system: E. coli D31; assay type: cell-based, Escherichia coli; settings: D31, 20 h
Procedure, shortened: as §2

[14] = test system: E. coli 10233; assay type: cell-based, Escherichia coli; settings: 10233, 20 h
Procedure, shortened: as §1

[15] = test system: E. coli 1103; assay type: cell-based, Escherichia coli; settings: 1103, 20 h
Procedure, shortened: as §1

[16] = in vitro; assay type: in vitro ADME, mouse; settings: 25% aqueous mouse serum, 37° C.; read-out: Half-life time
Procedure, shortened: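 Peptide or peptidomimetic (0.5 mg/mL aqueous stock) incubated in 25% pooled mouse serum at 37 °C, sampled at 0–6 h, in duplicate. Proteins precipitated with 15% TCA; supernatants neutralized and analyzed by RP-HPLC with 0.1% TFA. Degradation products identified by MALDI-TOF/TOF-MS.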

[17] = test system: E. coli BL21 AI
Description: The induction of resistance strains was determined according to the macro dilution method under NCCLS-conditions (National Committee for Clinical Laboratory Standards—now Clinical and Laboratory Standards Institute Wayne, Pa., USA, NCCLS-Guideline, M7-A5, Vol. 20, Nr. 2; 2000).
Firstly, minimal inhibition concentrations (MIC) were determined for the peptides to be examined as described in example 3.2. To determine induction of resistance continued dilutions of the peptide with concentrations ranging from 3 fold to 4 fold above to below the MIC were chosen. The test was performed in sterile 96-well microtiter plates with round bottoms (Polystyrene, U-bottom, Greiner Bio-One GmbH, Germany) and 200 μL final volume per well. The freeze-dried peptide or peptide derivatives were dissolved in water and diluted in respect to the MIC in 1% TSB (tryptic soy broth) to obtain a volume of 100 μL. […] The dilutions within the series were twofold.
The bacteria, E. coli BL21 AI, were grown overnight at 37° C. in nutrient broth (NB, Carl Roth GmbH+Co. KG, Karlsruhe, Germany) and diluted to 5×10^6 colony forming units (CFU)/mL in 1% TSB. To start the assay 100 μL of the bacteria dilution was added per well of the microtiter plate loaded with peptide. After incubating the plates for 24 h at 37° C., the absorption was determined at 595 nm using a TECAN microtiter plate reader (Tecan, Germany).
MIC values were calculated as described in example 3.2. The test was repeated using new dilution series with peptide concentrations adapted to the new determined MIC values and using the bacteria culture that grew despite the presence of the inhibitory peptide. This bacteria culture (1st passage) was diluted to 5×10^6 CFU/mL in 1% TSB. […] The test was repeated again with using new dilution series with peptide concentrations adapted to the new determined MIC values and using the bacteria culture that grew despite the presence of the inhibitory peptide (2nd passage). The same procedure was applied for about 8 further passages.
As a control a untreated E. coli BL21 AI culture was chosen and passaged without inhibitory peptides. All peptides and peptide derivatives were measured in triplicates. The number of passages was chosen dependent on the rapidity of induction of resistance and commonly was 10 passages over 10 continuous days.

[18] = cited from earlier work

Row | Compound | MIC M. luteus ATCC 10240 [1] [µg/mL] | MIC Mycobacterium vaccae [2] [µg/mL] | MIC E. coli DC 2 [3] [µg/mL] | MIC E. coli BL 21 AI [4] [µg/mL] | MIC S. enterica subsp. Enterica serovar. typhi G10215 ATCC 700408 [5] [µg/mL] | MIC R. radiobatter ATCC 15955 [6] [µg/mL] | MIC S. typhi S5 [7] [µg/mL] | MIC K. pneumonia 681 [8] [µg/mL] | MIC E. coli 45849 [9] [µg/mL] | MIC B. subtilis 347 [10] [µg/mL] | MIC K. Pneumonia 123132 [11] [µg/mL] | MIC K. Pneumonia K6, ATCC 700603 [12] [µg/mL] | MIC E. coli D31 [13] [µg/mL] | MIC E. coli 10233 [14] [µg/mL] | MIC E. coli 1103 [15] [µg/mL] | half-life [16] [min] | induction of resistance ([17]; 10 passages) | degradation in mammalian serum [18] | passage after which first resistance strains were obtained ([17]; 10 passages) [nd] | MIC-value in the 10th passage ([17]; 10th passage) [µg/mL]
1 | CC[C@H](C)[C@H](NC(=O)[C@H](Cc1ccc(O)cc1)NC(=O)[C@@H](NC(=O)[C@@H]1CCCN1C(=O)[C@H](CCCNC(=N)N)NC(=O)[C@H](CC(N)=O)NC(=O)[C@H](CC(N)=O)NC(=O)[C@@H](N)CCCN)C(C)C)C(=O)N1CCC[C@H]1C(=O)N[C@@H](CCCNC(=N)N)C(=O)N1CCC[C@H]1C(=O)N[C@@H](CCCNC(=N)N)C(=O)N1CCC[C@H]1C(=O)N1CCC[C@H]1C(=O)N[C@@H](Cc1c[nH]cn1)C(=O)N1CCC[C@H]1C(=O)N[C@@H](CCCNC(=N)N)C(=O)N[C@@H](CC(C)C)C(N)=O [compound 38] (H-[Orn]NNRPVYIPRPRPPHPRL-NH2) | 1.95 (≈ 0.889 µM) | 125 (≈ 57 µM) | 0.98 (≈ 0.447 µM) | 1.95 (≈ 0.889 µM) | 2 (≈ 0.912 µM) | 1.3 (≈ 0.593 µM) | <0.5 | 1.95 (≈ 0.889 µM) | 0.5 (≈ 0.228 µM) | 62.5 (≈ 28.5 µM) | 2 (≈ 0.912 µM) | 4 (≈ 1.82 µM) | 2 (≈ 0.912 µM) | 1.95 (≈ 0.889 µM) | 3.91 (≈ 1.78 µM) | – | – | – | – | –
2 | CC[C@H](C)[C@H](NC(=O)[C@H](Cc1ccc(O)cc1)NC(=O)[C@@H](NC(=O)[C@@H]1CCCN1C(=O)[C@H](CCCNC(=N)N)NC(=O)[C@H](CC(N)=O)NC(=O)[C@H](CC(N)=O)NC(=O)[C@H](CCCN)NC(C)=O)C(C)C)C(=O)N1CCC[C@H]1C(=O)N[C@@H](CCCNC(=N)N)C(=O)N1CCC[C@H]1C(=O)N[C@@H](CCCNC(=N)N)C(=O)N1CCC[C@H]1C(=O)N1CCC[C@H]1C(=O)N[C@@H](Cc1c[nH]cn1)C(=O)N1CCC[C@H]1C(=O)N[C@@H](CCCNC(=N)N)C(=O)N[C@@H](CC(C)C)C(N)=O [compound 39] (Ac-[Orn]NNRPVYIPRPRPPHPRL-NH2) | 0.98 (≈ 0.439 µM) | 125 (≈ 55.9 µM) | 0.98 (≈ 0.439 µM) | 1.95 (≈ 0.873 µM) | 4 (≈ 1.79 µM) | 0.33 (≈ 0.148 µM) | <0.5 | 3.9 (≈ 1.75 µM) | 1 (≈ 0.447 µM) | 125 (≈ 55.9 µM) | 4 (≈ 1.79 µM) | 16 (≈ 7.16 µM) | 4 (≈ 1.79 µM) | 1.95 (≈ 0.873 µM) | 3.91 (≈ 1.75 µM) | – | – | – | – | –
3 | CC[C@H](C)[C@H](NC(=O)[C@H](Cc1ccc(O)cc1)NC(=O)[C@@H](NC(=O)[C@@H]1CCCN1C(=O)[C@H](CCCNC(=N)N)NC(=O)[C@H](CC(N)=O)NC(=O)[C@H](CC(N)=O)NC(=O)[C@H](CCCN)N=C(N(C)C)N(C)C)C(C)C)C(=O)N1CCC[C@H]1C(=O)N[C@@H](CCCNC(=N)N)C(=O)N1CCC[C@H]1C(=O)N[C@@H](CCCNC(=N)N)C(=O)N1CCC[C@H]1C(=O)N1CCC[C@H]1C(=O)N[C@@H](Cc1c[nH]cn1)C(=O)N1CCC[C@H]1C(=O)N[C@@H](CCCNC(=N)N)C(=O)N[C@@H](CC(C)C)C(N)=O [compound 88] ({Orn(α-tetramethylguanidino)}-NNRPVYIPRPRPPHPRL-NH2; N-terminus and C-terminus assumed) | 1.95 (≈ 0.851 µM) | – | – | – | 0.125 (≈ 0.0546 µM) | – | 0.125 (≈ 0.0546 µM) | 7.81 (≈ 3.41 µM) | – | 62.5 (≈ 27.3 µM) | – | – | 0.5 (≈ 0.218 µM) | 1.95 (≈ 0.851 µM) | – | 15 | no induction of resistance was observed at all | – | – | –
4 | CC[C@H](C)[C@H](NC(=O)[C@H](Cc1ccc(O)cc1)NC(=O)[C@@H](NC(=O)[C@@H]1CCCN1C(=O)[C@H](CCCNC(=N)N)NC(=O)[C@H](CC(N)=O)NC(=O)[C@H](CC(N)=O)NC(=O)[C@H](CCCN)N=C(N(C)C)N(C)C)C(C)C)C(=O)N1CCC[C@H]1C(=O)N[C@@H](CCCNC(=N)N)C(=O)N1CCC[C@H]1C(=O)N[C@@H](CCCNC(=N)N)C(=O)N1CCC[C@H]1C(=O)N1CCC[C@H]1C(=O)N[C@@H](Cc1c[nH]cn1)C(=O)N1CCC[C@H]1C(=O)N[C@@H](CCCNC(=N)N)C(=O)N[C@@H](CC(C)C)C(=O)O [compound 137] ({Orn(α-tetramethylguanidino)}-NNRPVYIPRPRPPHPRL-OH; N-terminus and C-terminus assumed) | 8 (≈ 3.49 µM) | – | – | – | <1 | – | <1 | 2 (≈ 0.873 µM) | – | 64 (≈ 27.9 µM) | – | – | <1 | – | 8 (≈ 3.49 µM) | – | no induction of resistance was observed at all | – | – | –
5 | GNNRPVYIPQPRPPHPRL [apidaecin] | – | – | – | – | – | – | – | – | – | – | – | – | – | – | – | – | – | completely degradaded within one hour | – | –
6 | H-GNNRPVYIPQPRPPHPRL-OH [SEQ ID No. 2, GNNRPVYIPQPRPPHPRL-OH, reference compound] | – | – | – | – | – | – | – | – | – | – | – | – | – | – | – | – | – | – | 2 | 128
